From patent US4762701A, “In vivo cellular tracking” (SmithKline Beckman Corporation, priority 1986, dated 1988) come the findings set out here.

One data set relates to V79 cells. The experiment in a line: Growth kinetics of stained V79 cells. Type of data set: cell-based. To be noted: 10^-5 or 4×10^-5 M dye, versus unstained cells. How it is done:
Cells cyanine dye labelled using the presently invented procedure were analyzed to determine the effect of labelling on cell viability. V79 cells which are available from the American Type Culture Collection, Rockville, Maryland, and are described in Prescott, D. M., Ann. New York Acad. Sci., 397:101-109 (1982), were labelled with a solution containing DiOC14 (3) at a concentration of 10^-5 or 4×10^-5 M and the growth kinetics of the stained cells were compared to unstained cells and an equal mixture of stained and unstained cells. […] Thus, labelling had no effect on cell growth.

The nature of data set [1]: Cyanine dye solubility in osmolarity regulating agents (relative fluorescence intensity, ethanol standard). Format: physicochemical. How it is done: (§1) Included within compounds referred to herein as cyanine dyes are compounds of the above structure having one or more substitutions provided such substituted compounds are soluble in cell labelling media for at least as long as needed for labelling and have a sufficiently high membrane partition coefficient to remain associated with labelled cell membranes. […] Solubility in cell labelling media is determined as shown below by dispursing a cyanine dye in the labelling media and, by standard spectrafluorometric techniques, measuring fluorescence intensity over time. Decreasing fluorescence intensity indicates dye precipitation and adherence to vessel walls. Whether the dyes remain associated with cell membranes is determined, for example, using known flow cytometric procedures to monitor fluorescence intensity of red blood cells injected into the donor animal after labelling. Essentially constant fluorescence intensity of the labelled cells after injection establishes stability of the dye in cell membranes.
All measurements of concentration were made after removal of precipitates by centrifugation and dissolving small aliquots of osmolarity regulating agents containing cyanine dyes into ethanol for spectrofluorometric analysis. The dyes used were DiSC14 (5) and DiOC14 (3), and the osmolarity regulating agents were at iso-osmotic concentrations. Reductions in fluorescence intensity from the ethanol solution standard directly correlate with reductions in cyanine dye solubility.

The subject of another data set is Yac cells. Kind of data set: Doubling time of Yac cells after thirty minutes exposure to osmolarity regulating agents. Format: cell-based, mouse. The settings on record: for Doubling Time: after thirty minutes exposure, PBS is the comparator; for effects on cell doubling time: compared to phosphate buffered saline. How it is done: The effect on cell viability of exposure to a variety of osmolarity regulating agents was determined by measuring the doubling time of Yac cells after the cells were exposed for thirty minutes to a variety of osmolarity regulating agents. Yac cells are a mouse lymphoma tissue culture cell line available from the American Type Culture Collection, Rockville, Maryland, and are described in the European Journal of Immunology 5:112-117 (1975).

The nature of data set [2]: Solubility of DiSC14 (5) in iso-osmotic glucose diluted with water or sodium chloride solution. Format: physicochemical. The method, then: Further, the solubility of cyanine dyes in a medium containing classical salts and osmolarity regulators in which the dyes are soluble was evaluated. […] Thus, reproducible cell labelling with cyanine dyes can be performed in media containing no more than small amounts of classical salts, such as sodium chloride, potassium chloride, calcium chloride, sodium acetate, potassium acetate, sodium sulfate, sodium iodide, choline chloride, or choline iodide, and preferably is performed in a medium in which no classical salts are used to regulate osmolarity.

The test system of another data set is rabbit red cells. Kind of data set: In vivo stability of labelled rabbit red cells after reinfusion. From the text: To test in vivo stability of cells cyanine dye labelled according to the presently invented method, rabbit red cells were withdrawn, labelled with DiSC14 (5), and reinfused. Periodically thereafter, blood samples were obtained and analyzed for percent labelled cells and fluorescence intensity of the labelled cells.
In the fifth animal, not more than 20% of the cyanine dye had migrated from the labelled cells after 60 days in the rabbits' circulation.

Data set [3] in a line: Stability of DiSC14 (5) solutions in osmolarity regulating agents. Format: physicochemical. How it is done: as §1
Additionally, stability of DiSC14 (5) solutions in sugars such as glucose, fructose, ribose, sorbose, sucrose, and xylose, sugar-alcohols such as glycerol, inositol, xylitol, and adonitol, and amino acids such as glycine and arginine was determined.

[4] abbreviates: in Phosphate Buffered Saline, ethanol = 100.
[5] abbreviates: in iso-osmotic Arginine, ethanol = 100.
Where [6] appears, read: in iso-osmotic Choline Chloride, ethanol = 100, ** (DiSC14 (5) value) Artifact due to large crystals that did not pellet.
Where [7] appears, read: in iso-osmotic Choline Iodide, ethanol = 100.
The mark [8] stands for this setting: in iso-osmotic Fructose, ethanol = 100.
Setting [9] is: in iso-osmotic Glucose, ethanol = 100.
The mark [10] stands for this setting: in iso-osmotic Glycerol, ethanol = 100.
Where [11] appears, read: in iso-osmotic Glycine, ethanol = 100.
[12] abbreviates: in iso-osmotic Inositol, ethanol = 100.
Setting [13] is: in iso-osmotic Lyxose, ethanol = 100.
[14] abbreviates: in iso-osmotic Na2 SO4, ethanol = 100.
Setting [15] is: in iso-osmotic NaCl, ethanol = 100.
Setting [16] is: in iso-osmotic NaI, ethanol = 100.
The mark [17] stands for this setting: in iso-osmotic Ribose, ethanol = 100.
The mark [18] stands for this setting: in iso-osmotic Sorbose, ethanol = 100.
[19] abbreviates: in iso-osmotic Sucrose, ethanol = 100.
Setting [20] is: in iso-osmotic Xylitol, ethanol = 100.
Where [21] appears, read: in iso-osmotic Xylose, ethanol = 100.
The mark [22] stands for this setting: rabbit, reinfused labelled red cells.

Peptide text beside a SMILES is read from it.

Turning to `CCCCCCCCCCCCCCN1C(=CC=Cc2oc3ccccc3[n+]2CCCCCCCCCCCCCC)Oc2ccccc21` [DiOC14 (3)], the “Cell doubling time of labelled cells” value with V79 cells is reported as “Cell doubling time was unaffected by cyanine dye labelling”. Also, the “Relative Fluorescence Intensity (CONC)” value in data set [1] (in Ethanol (standard)) is 100; in data set [1] (setting [4]), 6.5; in data set [1] (setting [5]) it was 17.2; in data set [1] (setting [6]) it was 6.3; in data set [1] (setting [7]) it was 2.3; in data set [1] (setting [8]), 100. The “Relative Fluorescence Intensity (CONC)” value amounted to 100 in data set [1] (setting [9]); 99.5 in data set [1] (setting [10]); 93 in data set [1] (setting [11]); 92 in data set [1] (setting [12]); 1.8 in data set [1] (setting [13]); 1.6 in data set [1] (setting [14]). Further, the “Relative Fluorescence Intensity (CONC)” value in data set [1] (setting [15]) is listed as 1.7; in data set [1] (setting [16]) it was 0.14; in data set [1] (setting [17]), 100; in data set [1] (setting [18]), 100; in data set [1] (setting [19]), 100; in data set [1] (setting [20]), 76.4. In addition, the “Relative Fluorescence Intensity (CONC)” value in data set [1] (setting [21]) is listed as 19-52.

With `NC(=O)CNCCS(=O)(=O)O` [ACES, 2-[(2-Amino-2-oxoethyl)amino]ethane sulfonic acid], in the data set with Yac cells, the “Doubling Time” value worked out at 1038.4 h.

With `NCC(=O)NCC(=O)O` [Glycylglycine] (H-Gly-Gly-OH), the “Doubling Time” value in the data set on Yac cells worked out at 66.9 h.

Turning to `O=S(=O)(O)CC(O)CN1CCN(CCO)CC1` (centres unmarked) [HEPPSO, N--2-hydroxyethylpiperazine-N'--2-hydroxypropane-sulfonic acid], in the data set with Yac cells, the “Doubling Time” value came out at 23.4 h and the “effects on cell doubling time” value is given as “negligible effects on cell doubling time”.

As to `OC[C@H]1O[C@@](CO)(O[C@H]2O[C@H](CO)[C@@H](O)[C@H](O)[C@H]2O)[C@@H](O)[C@@H]1O` [Sucrose], in the data set with Yac cells, the “Doubling Time” value is 41.0 h and the “effects on cell doubling time” value is on record as “negligible effects on cell doubling time”.

Turning to `O=S(=O)(O)CCCNC1CCCCC1` [CAPS, 3-(Cyclohexylamino)-1-propanesulfonic acid], in the data set on Yac cells, the “Doubling Time” value was determined as 45.8 h and the “effects on cell doubling time” value is given as “negligible effects on cell doubling time”.

As for `NCCCS(=O)(=O)O` [3-Amino-1-propanesulfonic acid], in the data set on Yac cells, the “Doubling Time” value turned out to be 99.6 h.

As for `O=S(=O)(O)CC(O)CN1CCOCC1` (centres unmarked) [MOPSO, 3-(N--morpholino)-2-hydroxypropane-sulfonic acid], the “Doubling Time” value with Yac cells came to 178.4 h.

`O=S(=O)(O)CCCNC(CO)(CO)CO` [TAPS, Tris(hydroxymethyl)-methylaminopropane sulfonic acid]: in the data set with Yac cells, the “Doubling Time” value is 32.7 h and the “effects on cell doubling time” value was “negligible effects on cell doubling time”.

Regarding `O=S(=O)(O)CC(O)CN(CCO)CCO` (centres unmarked) [DIPSO, 3-[N--N--bis(2-hydroxyethyl)amino]-2-hydroxypropane-sulfonic acid], in the data set on Yac cells, the “Doubling Time” value is 36.7 h and the “effects on cell doubling time” value was “negligible effects on cell doubling time”.

For `N[C@H]1C(O)O[C@H](CO)[C@@H](O)[C@@H]1O` (some centres unmarked) [Glucosamine], the “Doubling Time” value with Yac cells turned out to be 288.4 h.

For `O=S(=O)(O)CCCN1CCN(CCO)CC1` [EPPS, N--(2-Hydroxyethyl)piperazine-N'--3-propanesulfonic acid], in the data set with Yac cells, the “Doubling Time” value turned out to be 32.2 h and the “effects on cell doubling time” value was “negligible effects on cell doubling time”.

As for `CCCCCCCCCCCCCCN1C(=CC=CC=Cc2sc3ccccc3[n+]2CCCCCCCCCCCCCC)Sc2ccccc21` [DiSC14 (5)], the “solubility in iso-osmotic glucose solution on dilution with distilled water” value in data set [2] (diluted with distilled water) was “not significantly affected by dilution with distilled water”. In addition, the “solubility in iso-osmotic glucose solution on dilution with sodium chloride solution” value in data set [2] (dilution with only approximately 20% iso-osmotic sodium chloride solution) is listed as “reduced significantly”. Moreover, the “Relative Fluorescence Intensity (CONC)” value in data set [1] (in Ethanol (standard)) was 100; in data set [1] (setting [4]) it was 2.1; in data set [1] (in iso-osmotic Adonitol, ethanol = 100), 34; in data set [1] (setting [5]), 17; in data set [1] (in iso-osmotic CAPS, ethanol = 100), 40; in data set [1] (setting [6]) it was 11. Moreover, the “Relative Fluorescence Intensity (CONC)” value in data set [1] (setting [7]) is 0.16; in data set [1] (in iso-osmotic DIPSO, ethanol = 100, *** Precipitate in ethanol (data questionable)), 43; in data set [1] (in iso-osmotic EPPS, ethanol = 100), 18; in data set [1] (setting [8]), 35; in data set [1] (setting [9]), 31; in data set [1] (setting [10]), 39. For the same compound, the “Relative Fluorescence Intensity (CONC)” value in data set [1] (setting [11]) is on record as 31; in data set [1] (in iso-osmotic HEPPSO, ethanol = 100), 20; in data set [1] (setting [12]) it was 42; in data set [1] (setting [13]), 0.12; in data set [1] (in iso-osmotic Mannitol, ethanol = 100), 29; in data set [1] (setting [14]) it was 7.4. Further, the “Relative Fluorescence Intensity (CONC)” value came out at 6 in data set [1] (setting [15]); 1.1 in data set [1] (setting [16]); 24 in data set [1] (setting [17]); 40 in data set [1] (setting [18]); 41 in data set [1] (setting [19]); 18 in data set [1] (in iso-osmotic TAPS, ethanol = 100). Moreover, the “Relative Fluorescence Intensity (CONC)” value in data set [1] (setting [20]) is recorded as 34; in data set [1] (setting [21]) it was 36. The “fluorescence intensity of the stained cells” value in the data set with rabbit red cells (60 days after labelling and reinjection, all but one of five rabbits) is “remained essentially unchanged 60 days after labelling and reinjection”. For the same compound, in the data set with rabbit red cells (fifth rabbit, after 60 days in circulation), the “cyanine dye migrated from the labelled cells” value is recorded as “not more than 20%”. In the data set on rabbit red cells (rabbit, labelled red cells), the “clearance rate of red blood cells” value is reported as “did not affect the clearance rate of red blood cells”. In addition, in the data set with rabbit red cells (setting [22]), the “lifetime of labelled red cells” value turned out to be 52 days. Further, in the data set on rabbit red cells (setting [22]), the “number of circulating labelled red cells over time” value was “decreased linearly as a function of time”. Besides, the “time for which dye was stable in solution” value in data set [3] (in glucose, fructose, ribose, sorbose, sucrose, xylose, glycerol, inositol, xylitol, adonitol, glycine, arginine) was “at least twenty”. In addition, the “amount of cyanine dye in solution at sixty minutes” value in data set [3] (in many of the agents, sixty minutes) is recorded as “had not significantly decreased at sixty minutes”.

With `O=S(=O)(O)CCNC1CCCCC1` [CHES, 2-(N--cyclohexylamino)ethane sulfonic acid], in the data set on Yac cells, the “Doubling Time” value came out at 51.5 h.

For the compound `O=S(=O)(O)CC(O)CNC(CO)(CO)CO` (centres unmarked) [TAPSO, 3-[N--tris(hydroxymethyl)methylamino]-2-hydroxypropanesulfonic acid], the “Doubling Time” value in the data set on Yac cells was found to be 63.6 h.

Turning to `O=C[C@H](O)[C@@H](O)[C@H](O)[C@H](O)CO` [Glucose], in the data set on Yac cells, the “Doubling Time” value was determined as 34.5 h and the “effects on cell doubling time” value was “negligible effects on cell doubling time”.

In the case of `O=C(O)CN(CCO)CCO` [BICINE, N,N--bis(2-hydroxyethyl)glycine], the “Doubling Time” value with Yac cells was 57.7 h.
